Test results from patent US10758534B2 (Vertex Pharmaceuticals Incorporated, priority 2014, dated 2020).

Target: T1, F508del (Homo sapiens, UniProt P13569, DEL508-508)
T1 construct: expressed in transfected cells
Assay: Protocol 2: FRET membrane potential optical assay (VIPR), identification of correction compounds
Assay type: cell-based
Conditions: Table 3; compounds of Table 1 as modulators of CFTR activity; protocol not stated
Summary of the method: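 Correction of the F508del trafficking defect is scored as forskolin (10 μM)/genistein (20 μM)-stimulated Cl^− efflux in NIH3T3 mouse fibroblasts after a 16 hr, 37° C. compound exposure. Depolarization was followed optically using voltage-sensing FRET dyes.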

T1 sequence (P13569 with tags, fused parts or gaps DEL508-508): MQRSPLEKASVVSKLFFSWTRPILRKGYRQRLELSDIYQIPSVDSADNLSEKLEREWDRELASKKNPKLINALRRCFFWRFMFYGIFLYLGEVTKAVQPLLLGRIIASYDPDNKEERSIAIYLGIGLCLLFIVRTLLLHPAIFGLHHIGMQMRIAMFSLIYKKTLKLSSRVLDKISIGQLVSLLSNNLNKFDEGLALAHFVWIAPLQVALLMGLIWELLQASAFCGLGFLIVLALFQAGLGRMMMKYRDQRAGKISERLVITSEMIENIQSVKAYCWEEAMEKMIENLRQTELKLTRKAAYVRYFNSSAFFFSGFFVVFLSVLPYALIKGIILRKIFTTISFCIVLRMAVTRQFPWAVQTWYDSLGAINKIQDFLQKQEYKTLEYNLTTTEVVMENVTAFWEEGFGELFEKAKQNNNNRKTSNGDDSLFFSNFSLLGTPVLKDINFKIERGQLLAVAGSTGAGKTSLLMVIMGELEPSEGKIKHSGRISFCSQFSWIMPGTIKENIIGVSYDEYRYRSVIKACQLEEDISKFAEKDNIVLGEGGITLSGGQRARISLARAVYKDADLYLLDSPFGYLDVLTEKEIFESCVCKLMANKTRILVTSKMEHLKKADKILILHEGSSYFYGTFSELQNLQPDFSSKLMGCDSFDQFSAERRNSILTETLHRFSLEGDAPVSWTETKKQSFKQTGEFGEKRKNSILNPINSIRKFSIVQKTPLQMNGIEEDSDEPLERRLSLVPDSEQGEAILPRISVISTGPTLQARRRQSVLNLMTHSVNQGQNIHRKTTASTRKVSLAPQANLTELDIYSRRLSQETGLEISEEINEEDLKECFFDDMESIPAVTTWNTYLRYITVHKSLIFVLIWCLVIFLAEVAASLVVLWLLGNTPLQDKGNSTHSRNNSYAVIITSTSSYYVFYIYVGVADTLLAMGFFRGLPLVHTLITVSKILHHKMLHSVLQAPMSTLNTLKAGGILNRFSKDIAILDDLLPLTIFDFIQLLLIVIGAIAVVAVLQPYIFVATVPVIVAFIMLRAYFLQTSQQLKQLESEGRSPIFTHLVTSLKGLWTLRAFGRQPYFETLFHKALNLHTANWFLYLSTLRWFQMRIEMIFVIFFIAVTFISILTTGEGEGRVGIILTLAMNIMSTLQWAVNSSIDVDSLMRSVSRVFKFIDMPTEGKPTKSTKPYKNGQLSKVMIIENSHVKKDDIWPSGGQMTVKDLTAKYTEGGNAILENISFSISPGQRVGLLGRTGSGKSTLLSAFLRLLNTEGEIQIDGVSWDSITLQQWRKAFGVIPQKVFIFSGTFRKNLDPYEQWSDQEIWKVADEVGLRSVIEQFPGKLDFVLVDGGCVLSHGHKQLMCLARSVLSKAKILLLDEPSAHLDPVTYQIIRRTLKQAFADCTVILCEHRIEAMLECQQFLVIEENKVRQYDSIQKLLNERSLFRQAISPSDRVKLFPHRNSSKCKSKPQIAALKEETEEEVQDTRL

Row | Structure (SMILES) | EC30
1 | Cc1cc(-c2nc(C(C)(C)C)ccc2C(=O)NS(=O)(=O)c2cccc(N)c2)ccc1F [Compound 177, N-(3-aminophenyl)sulfonyl-6-tert-butyl-2-(4-fluoro-3-methyl-phenyl)pyridine-3-carboxamide] | ++ (“++” means between 3 uM and 10 uM)
2 | Cc1cccc(C)c1Cn1nc(-c2cccc(N(C)C)c2)cc1C(=O)NS(=O)(=O)c1ccccc1 [Compound 178, N-(benzenesulfonyl)-5-[3-(dimethylamino)phenyl]-2-[(2,6-dimethylphenyl)methyl]pyrazole-3-carboxamide] | +++ (“+++” means <3 uM)
3 | CCc1ccc2c(c1)cc(C(=O)NS(=O)(=O)c1cccc(N)n1)n2Cc1c(C)cc(C)cc1C [Compound 179, N-[(6-amino-2-pyridyl)sulfonyl]-5-ethyl-1-[(2,4,6-trimethylphenyl)methyl]indole-2-carboxamide] | +++ (“+++” means <3 uM)
4 | Cc1cc(C)c(Cn2nc(C(C)(C)C)cc2C(=O)NS(=O)(=O)c2cccc3[nH]ccc23)c(C)c1 [Compound 180, 5-tert-butyl-N-(1H-indol-4-ylsulfonyl)-2-[(2,4,6-trimethylphenyl)methyl]pyrazole-3-carboxamide] | +++ (“+++” means <3 uM)
5 | Cc1cc(C)c(Cn2c(C(=O)NS(=O)(=O)c3cccc(N)c3)cc3c(F)cccc32)c(C)c1 [Compound 181, N-(3-aminophenyl)sulfonyl-4-fluoro-1-[(2,4,6-trimethylphenyl)methyl]indole-2-carboxamide] | +++ (“+++” means <3 uM)
6 | Cc1cc(C)c(Oc2nc3c(cc2C(=O)NS(=O)(=O)c2cccc(N)n2)CCCC3(C)C)c(C)c1 [Compound 182, N-[(6-amino-2-pyridyl)sulfonyl]-8,8-dimethyl-2-(2,4,6-trimethylphenoxy)-6,7-dihydro-5H-quinoline-3-carboxamide] | +++ (“+++” means <3 uM)
7 | COc1ccccc1S(=O)(=O)NC(=O)c1cc2ccccc2n1Cc1c(C)cc(C)cc1C [Compound 183, N-(2-methoxyphenyl)sulfonyl-1-[(2,4,6-trimethylphenyl)methyl]indole-2-carboxamide] | +++ (“+++” means <3 uM)
8 | Cc1cc(C)c(Cn2c(C(=O)NS(=O)(=O)c3cccc(N)c3)cc3cccnc32)c(C)c1 [Compound 184, N-(3-aminophenyl)sulfonyl-1-[(2,4,6-trimethylphenyl)methyl]pyrrolo[2,3-b]pyridine-2-carboxamide] | ++ (“++” means between 3 uM and 10 uM)
9 | Cc1cccc(C)c1Cn1nc(C(C)(C)C)cc1C(=O)NS(=O)(=O)c1cccc(N)c1 [Compound 185, N-(3-aminophenyl)sulfonyl-5-tert-butyl-2-[(2,6-dimethylphenyl)methyl]pyrazole-3-carboxamide] | +++ (“+++” means <3 uM)
10 | CC(c1ccccc1)n1c(C(=O)NS(=O)(=O)c2cccc(N)c2)cc2c(F)cccc21 (stereo not drawn) [Compound 186, N-(3-aminophenyl)sulfonyl-4-fluoro-1-(1-phenylethyl)indole-2-carboxamide] | +++ (“+++” means <3 uM)
11 | CC(c1ccccc1)N1Cc2ccccc2C1C(=O)NS(=O)(=O)c1cccc(N)c1 (stereo not drawn) [Compound 187, N-(3-aminophenyl)sulfonyl-2-(1-phenylethyl)isoindoline-1-carboxamide] | ++ (“++” means between 3 uM and 10 uM)
12 | Cc1cc(C)c(Cn2nc(C(C)(C)C)cc2C(=O)NS(=O)(=O)c2cccc3c2ccn3CCO)c(C)c1 [Compound 188, 5-tert-butyl-N-[1-(2-hydroxyethyl)indol-4-yl]sulfonyl-2-[(2,4,6-trimethylphenyl)methyl]pyrazole-3-carboxamide] | +++ (“+++” means <3 uM)
13 | CC(C)(C)c1cc(C(=O)NS(=O)(=O)c2cccc(N)c2)n(Cc2c(Cl)cccc2C(F)(F)F)n1 [Compound 189, N-(3-aminophenyl)sulfonyl-5-tert-butyl-2-[[2-chloro-6-(trifluoromethyl)phenyl]methyl]pyrazole-3-carboxamide] | +++ (“+++” means <3 uM)
14 | CCOc1ccc(-c2ccc(C(=O)NS(=O)(=O)c3cc[nH]n3)c(Oc3c(C)cc(C)cc3C)n2)cc1 [Compound 190, 6-(4-ethoxyphenyl)-N-(1H-pyrazol-3-ylsulfonyl)-2-(2,4,6-trimethylphenoxy)pyridine-3-carboxamide] | +++ (“+++” means <3 uM)
15 | COc1ncccc1S(=O)(=O)NC(=O)c1ccc(C(C)(C)C)nc1Oc1c(C)cc(C)cc1C [Compound 191, 6-tert-butyl-N-[(2-methoxy-3-pyridyl)sulfonyl]-2-(2,4,6-trimethylphenoxy)pyridine-3-carboxamide] | +++ (“+++” means <3 uM)
16 | CC(c1ccccc1)n1c(C(=O)NS(=O)(=O)c2ccncc2)cc2c(F)cccc21 (stereo not drawn) [Compound 192, 4-fluoro-1-(1-phenylethyl)-N-(4-pyridylsulfonyl)indole-2-carboxamide] | +++ (“+++” means <3 uM)
17 | Cc1ccccc1N(C)c1nc(C(C)(C)C)ccc1C(=O)NS(=O)(=O)c1cccc(N)c1 [Compound 193, N-(3-aminophenyl)sulfonyl-6-tert-butyl-2-(N,2-dimethylanilino)pyridine-3-carboxamide] | +++ (“+++” means <3 uM)
18 | Cc1cc(C)c(Cn2c(C(=O)NS(=O)(=O)c3cccc(N)c3)cc3cccc(C)c32)c(C)c1 [Compound 194, N-(3-aminophenyl)sulfonyl-7-methyl-1-[(2,4,6-trimethylphenyl)methyl]indole-2-carboxamide] | +++ (“+++” means <3 uM)
19 | Cc1cc(C)c(Cn2cc(C(C)(C)C)cc2C(=O)NS(=O)(=O)c2cccc(N)c2)c(C)c1 [Compound 195, N-(3-aminophenyl)sulfonyl-4-tert-butyl-1-[(2,4,6-trimethylphenyl)methyl]pyrrole-2-carboxamide] | +++ (“+++” means <3 uM)
20 | Cc1cc(C)c(Oc2nc(-c3cc(F)cc(OCC(C)C)c3)ccc2C(=O)NS(=O)(=O)c2cccc(N)n2)c(C)c1 [Compound 196, N-[(6-amino-2-pyridyl)sulfonyl]-6-(3-fluoro-5-isobutoxy-phenyl)-2-(2,4,6-trimethylphenoxy)pyridine-3-carboxamide] | +++ (“+++” means <3 uM)
21 | CC1CCN(c2nc3c(cc2C(=O)NS(=O)(=O)c2nccnc2N)CCCC3(C)C)CC1 [Compound 197, N-(3-aminopyrazin-2-yl)sulfonyl-8,8-dimethyl-2-(4-methyl-1-piperidyl)-6,7-dihydro-5H-quinoline-3-carboxamide] | +++ (“+++” means <3 uM)
22 | COc1cc2cc(C(=O)NS(=O)(=O)c3ccccc3)n(Cc3c(C)cc(C)cc3C)c2cc1OC [Compound 198, N-(benzenesulfonyl)-5,6-dimethoxy-1-[(2,4,6-trimethylphenyl)methyl]indole-2-carboxamide] | +++ (“+++” means <3 uM)
23 | Cc1ccc(-c2cc(C(=O)NS(=O)(=O)c3ccccc3)n(Cc3c(C)cccc3C)n2)cc1 [Compound 199, N-(benzenesulfonyl)-2-[(2,6-dimethylphenyl)methyl]-5-(p-tolyl)pyrazole-3-carboxamide] | +++ (“+++” means <3 uM)
24 | COc1ccc(S(=O)(=O)NC(=O)C2c3ccccc3CN2Cc2c(C)cc(C)cc2C)cn1 (stereo not drawn) [Compound 200, N-[(6-methoxy-3-pyridyl)sulfonyl]-2-[(2,4,6-trimethylphenyl)methyl]isoindoline-1-carboxamide] | ++ (“++” means between 3 uM and 10 uM)
